From PubChem BioAssay AID248 (DTP/NCI, 2004)
“And” between values parts separate entries of the source, which are not always exact repeats. Identical values can stand only once. Inconclusive results and toxic doses are left out. Cut-off read from the data, not from the text of the source: active = T/C of 150% or more; inactive = T/C below 125%.

System: L1210 leukemia ip in BDF1 mice, survival T/C
Assay: NCI In Vivo Anticancer Drug Screen. Data for tumor model L1210 Leukemia (intraperitoneal) in B6D2F1 (BDF1) mice
Details: endpoint: mean survival time, higher = longer survival
Procedure, shortened: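 Antitumor effect is assessed in tumor-bearing animals. Survival in the compound arm is compared with a vehicle-dosed control arm and expressed as their quotient.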

[1] = dose: 100.0 mg/kg/injection, schedule: Q04DX002 (ip), vehicle: Klucel (hydroxypropylcellulose) (HPC)
[2] = dose: 200.0 mg/kg/injection, schedule: Q04DX002 (ip), vehicle: Klucel (hydroxypropylcellulose) (HPC)
[3] = dose: 400.0 mg/kg/injection, schedule: Q04DX002 (ip), vehicle: Klucel (hydroxypropylcellulose) (HPC)
[4] = dose: 100.0 mg/kg/injection, schedule: Q01DX001 (ip), vehicle: saline
[5] = dose: 200.0 mg/kg/injection, schedule: Q01DX001 (ip), vehicle: saline
[6] = dose: 400.0 mg/kg/injection, schedule: Q01DX001 (ip), vehicle: saline
[7] = dose: 100.0 mg/kg/injection, schedule: Q04DX003 (ip), vehicle: saline
[8] = dose: 200.0 mg/kg/injection, schedule: Q04DX003 (ip), vehicle: saline
[9] = dose: 400.0 mg/kg/injection, schedule: Q04DX003 (ip), vehicle: saline
[10] = dose: 100.0 mg/kg/injection, schedule: Q04DX003 (ip), vehicle: Klucel (hydroxypropylcellulose) (HPC)
[11] = dose: 200.0 mg/kg/injection, schedule: Q04DX003 (ip), vehicle: Klucel (hydroxypropylcellulose) (HPC)
[12] = dose: 400.0 mg/kg/injection, schedule: Q04DX003 (ip), vehicle: Klucel (hydroxypropylcellulose) (HPC)
[13] = dose: 100.0 mg/kg/injection, schedule: Q01DX009 (ip), vehicle: saline
[14] = dose: 200.0 mg/kg/injection, schedule: Q01DX009 (ip), vehicle: saline
[15] = dose: 100.0 mg/kg/injection, schedule: Q01DX009 (ip), vehicle: Klucel (hydroxypropylcellulose) (HPC)
[16] = dose: 200.0 mg/kg/injection, schedule: Q01DX009 (ip), vehicle: Klucel (hydroxypropylcellulose) (HPC)

Measured: T/C

CCOC(=O)C1(C)Nc2ccc3ccccc3c2NC1=O (stereo unspecified)
inactive: [1] 93 % of control | [2] 101 % of control | [3] 101 % of control

Clc1nc2ccccc2[nH]1
inactive: [4] 114 % of control | [5] 105 % of control | [6] 110 % of control

CCOC(=O)C/C(=C/c1ccco1)C(=O)OCC
inactive: [4] 86 % of control | [7] 89 % of control | [5] 92 % of control | [8] 96 % of control | [6] 89 % of control | [9] 89 % of control

c1ccc2c(c1)OB(C1CCCC1)O2
inactive: [10] 95 % of control | [11] 93 % of control | [12] 100 % of control

COc1ccc(/C=C/C(=O)c2ccc(OC)c(OC)c2)cc1O
inactive: [13] 96 % of control | [7] 95 % of control | [14] 120 % of control | [8] 98 % of control | dose: 400.0 mg/kg/injection, schedule: Q01DX009 (ip), vehicle: saline 91 % of control | [9] 95 % of control

COc1cc(NC(C)CCCN)c2nc(OCc3ccccc3)ccc2c1 (stereo unspecified)
inactive: dose: 6.25 mg/kg/injection, schedule: Q01DX009 (ip), vehicle: saline with Tween-80 96 % of control | dose: 6.25 mg/kg/injection, schedule: Q04DX003 (ip), vehicle: saline with Tween-80 96 % of control | dose: 12.5 mg/kg/injection, schedule: Q01DX009 (ip), vehicle: saline with Tween-80 98 % of control | dose: 12.5 mg/kg/injection, schedule: Q04DX003 (ip), vehicle: saline with Tween-80 93 % of control | dose: 25.0 mg/kg/injection, schedule: Q01DX009 (ip), vehicle: saline with Tween-80 97 % of control | dose: 25.0 mg/kg/injection, schedule: Q04DX003 (ip), vehicle: saline with Tween-80 99 % of control

O=C(Nc1ccccn1)c1cc(N2CCOCC2)ccn1
inactive: [4] 102 % of control

N#CCCNc1ccc(NC(=O)C(F)(F)F)cc1
inactive: dose: 25.0 mg/kg/injection, schedule: Q01DX009 (ip), vehicle: saline 92 % of control | dose: 50.0 mg/kg/injection, schedule: Q01DX009 (ip), vehicle: saline 92 % of control | [13] 94 % of control | [7] 87 % of control

OC(c1ccccc1)C1C2C=CC(C2)C1C(O)c1ccccc1 (stereo unspecified)
inactive: [15] 101 % of control | [16] 86 % of control | dose: 300.0 mg/kg/injection, schedule: Q01DX009 (ip), vehicle: Klucel (hydroxypropylcellulose) (HPC) 95 % of control

CC(=O)OC(C(=O)c1ccccc1)c1ccccc1 (stereo unspecified)
inactive: [15] 94 % of control | [10] 104 % of control | [16] 94 % of control | [11] 104 % of control | dose: 400.0 mg/kg/injection, schedule: Q01DX009 (ip), vehicle: Klucel (hydroxypropylcellulose) (HPC) 104 % of control | [12] 91 % of control

CC1(C)OC2COC(c3[nH]nc4c(=O)[nH][nH]c(=O)c34)C2O1 (stereo unspecified)
inactive: dose: 100.0 mg/kg/injection, schedule: Q01DX005 (ip), vehicle: saline 103 % of control | dose: 200.0 mg/kg/injection, schedule: Q01DX005 (ip), vehicle: saline 106 % of control

CN1CCN(C(=O)c2ccccc2C(=O)O)CC1
inactive: [4] 101 % of control | [5] 96 % of control

O=C(OCC(F)(F)C(F)(F)C(F)(F)C(F)F)c1ccccc1C(=O)OCC(F)(F)C(F)(F)C(F)(F)C(F)F
inactive: dose: 50.0 mg/kg/injection, schedule: Q01DX001 (ip), vehicle: carboxymethylcellulose (CMC) 91 % of control | dose: 100.0 mg/kg/injection, schedule: Q01DX001 (ip), vehicle: carboxymethylcellulose (CMC) 107 % of control | dose: 200.0 mg/kg/injection, schedule: Q01DX001 (ip), vehicle: carboxymethylcellulose (CMC) 105 % of control | dose: 400.0 mg/kg/injection, schedule: Q01DX001 (ip), vehicle: carboxymethylcellulose (CMC) 94 % of control

COc1ccc2c3c1OC1C(C)=CCC4C(C2)N(C)CCC314 (stereo unspecified)
inactive: dose: 75.0 mg/kg/injection, schedule: Q01DX001 (ip), vehicle: saline 101 % of control

NC(Cc1ccc(O)c(I)c1)C(=O)O (stereo unspecified)
inactive: [13] 96 % of control | [7] 101 % of control | [14] 98 % of control | [8] 93 % of control | [9] 100 % of control

CC(=O)OC(C1SCCCS1)C1CC2C=CC1C2 (stereo unspecified)
inactive: [1] 115 % of control | [2] 91 % of control | [3] 105 % of control

Cc1nc2c(=O)n(C)c(=O)n(C)c2n1C
inactive: dose: 50.0 mg/kg/injection, schedule: Q01DX009 (ip), vehicle: saline with Tween-80 101 % of control | dose: 100.0 mg/kg/injection, schedule: Q01DX009 (ip), vehicle: saline with Tween-80 98 % of control | dose: 100.0 mg/kg/injection, schedule: Q04DX003 (ip), vehicle: saline with Tween-80 100 % of control | dose: 200.0 mg/kg/injection, schedule: Q01DX009 (ip), vehicle: saline with Tween-80 100 % of control | dose: 200.0 mg/kg/injection, schedule: Q04DX003 (ip), vehicle: saline with Tween-80 98 % of control

CC#C[P+](Cc1ccccc1)(c1ccccc1)c1ccccc1
inactive: dose: 9.5 mg/kg/injection, schedule: Q01DX001 (ip), vehicle: saline 108 % of control | dose: 19.0 mg/kg/injection, schedule: Q01DX001 (ip), vehicle: saline 117 % of control

COC1OC2COC(c3ccccc3)OC2C(NC(C)=O)C1O (stereo unspecified)
inactive: [1] 101 % of control | [2] 111 % of control | [3] 105 % of control

CN(C)Cc1cc(Cl)ccc1O
inactive: [1] 100 % of control

CCCCCCCCCCCCCCCCC(C(=O)O)C(O)(CC(=O)O)C(=O)O (stereo unspecified)
inactive: dose: 19.0 mg/kg/injection, schedule: Q01DX Z (ip), vehicle: carboxymethylcellulose (CMC) 92 % of control | dose: 37.5 mg/kg/injection, schedule: Q01DX Z (ip), vehicle: carboxymethylcellulose (CMC) 92 % of control | dose: 75.0 mg/kg/injection, schedule: Q01DX Z (ip), vehicle: carboxymethylcellulose (CMC) 86 % of control and 87 % of control | dose: 150.0 mg/kg/injection, schedule: Q01DX Z (ip), vehicle: carboxymethylcellulose (CMC) 88 % of control

CSc1nc2[nH]cc(C(=O)O)c(=O)c2c(=O)[nH]1
inactive: [7] 104 % of control | [8] 101 % of control | [9] 91 % of control
